Key:
MRGPRX4-83S [1] = molecular target: T1, MRGPRX4-83S (Homo sapiens, UniProt Q96LA9, L83S); test: β-arrestin assay (CHO β-arrestin human MRGPRX4-83S); format: cell-based; set-up: host or cells: CHO β-arrestin cells; details: for Emax: efficacy based on 100 nM B-16 (set as 100%), read-out: Emax; for EC50: β-arrestin recruitment, CHO cells, MRGPRX4-83S, read-out: EC50 ± SEM
Summary of the method: (§1)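 CHO cells, recombinant hMRGPRX4 → β-arrestin recruitment via β-gal complementation. Ca mobilization → recombinant astrocytes (83L) or native LN229 cells (83S).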

MRGPRX4-83S [2] = molecular target: T1, MRGPRX4-83S; test: Calcium assay (human glioblastoma LN229 cells expressing the MRGPRX4-83S); format: cell-based; set-up: LN229 glioblastoma cells natively expressing the MRGPRX4-83S; endogenous in cells; host or cells: LN229 human glioblastoma cells; details: for Emax: LN-229, efficacy based on 30 μM H-1 (set as 100%), read-out: Emax; for EC50: calcium mobilization, LN229 cells, MRGPRX4-83S, read-out: EC50 ± SEM
Method: For β-arrestin recruitment assays, recombinant Chinese hamster ovary (CHO) cells expressing the human MRGPRX4 were used (DiscoverX/Eurofins) which allowed to measure β-galactosidase complementation upon β-arrestin recruitment. For calcium mobilization assays, recombinant astrocytes expressing MRGPX4-83L, or LN229 glioblastoma cells natively expressing the MRGPRX4-83S, were used.
The assays were performed as previously described for other rhodopsin-like GPCRs (Müller, C.E.; 8-Benzamidochromen-4-one-2-carboxylic acids: potent and selective agonists for the orphan G protein-coupled receptor GPR35. J. Med. Chem. 2013, 56:5182-97; Müller, C.E. Molecular Recognition of Agonists and Antagonists by the Nucleotide-Activated G Protein-Coupled P2Y2 Receptor. J. Med. Chem. 2017, 60:8425-8440).

human MRGPRX4-83L [3] = molecular target: T2, human MRGPRX4-83L (Homo sapiens, UniProt Q96LA9); test: β-arrestin assay (CHO β-arrestin ARMS1-ProLink 2 human MRGPRX4 83L); format: cell-based; details: for IC50: inhibition of the effect of 2.6 μM B-16; for EC50: β-arrestin recruitment, CHO cells, MRGPRX4-83L, read-out: EC50 ± SEM; for Emax: efficacy based on maximal effect of 100 nM B-16 (set as 100%), read-out: Emax
T2 construct: host or cells: CHO β-arrestin cells
T2 sequence (Q96LA9 whole entry): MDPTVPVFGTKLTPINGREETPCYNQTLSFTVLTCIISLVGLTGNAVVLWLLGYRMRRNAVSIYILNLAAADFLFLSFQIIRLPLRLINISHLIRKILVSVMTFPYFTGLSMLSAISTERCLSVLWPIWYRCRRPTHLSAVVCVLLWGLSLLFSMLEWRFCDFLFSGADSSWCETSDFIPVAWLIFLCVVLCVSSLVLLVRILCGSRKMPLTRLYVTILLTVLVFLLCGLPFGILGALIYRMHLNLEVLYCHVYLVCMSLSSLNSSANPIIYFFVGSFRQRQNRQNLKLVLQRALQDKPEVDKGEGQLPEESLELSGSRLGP
Summary of the method: as §1

human MRGPRX4-83L [4] = molecular target: T2, human MRGPRX4-83L; test: Calcium assay (human MRGPRX4 83L), recombinant astrocytes; format: cell-based; details: for EC50: calcium mobilization, MRGPRX4-83L, read-out: EC50 ± SEM; for Emax: efficacy based on maximal effect of 1 μM B-16 (set as 100%), read-out: Emax
Summary of the method: as §1

[5] = Table 1, means of 3-4 experiments

T1 sequence (Q96LA9 whole entry L83S): as the sequence (Q96LA9 whole entry) above, with L83S counted along it

| SMILES | EC50 (MRGPRX4-83S [1]; Table 2) | melting point | EC50 (human MRGPRX4-83L [3]; [5]) | EC50 (human MRGPRX4-83L [4]; Table 1) | Emax (MRGPRX4-83S [1]; Table 3) | EC50 (MRGPRX4-83S [1]; Table 3) | Emax (MRGPRX4-83S [2]; Table 3) | EC50 (MRGPRX4-83S [2]; Table 3) | further results |
| --- | --- | --- | --- | --- | --- | --- | --- | --- | --- |
| C#CCn1c(=O)c2c(nc(CCc3ccccc3C)n2CC)n(CCCCP(=O)(O)O)c1=O [B-32, (4-(7-Ethyl-8-(2-methylphenethyl)-2,6-dioxo-1-(prop-2-yn-1-yl)-1,2,6,7-tetrahydro-3H-purin-3-yl)butyl)phosphonic acid] |  | 152 to 154 °C |  |  | 97% | 0.0424 ± 0.015 nM | 111% | 0.441 ± 0.157 nM |  |
| C#CCn1c(=O)c2[nH]c(CCc3ccc(OC)cc3OC)nc2n(CCCCP(=O)(O)O)c1=O [B-10, (4-(8-(2,4-Dimethoxyphenethyl)-2,6-dioxo-1-(prop-2-yn-1-yl)-1,2,6,7-tetrahydro-3H-purin-3-yl)butyl)phosphonic acid] | 71.4 ± 19.3 nM | 255 to 257 °C | 14500 ± 2400 nM | 425 ± 187 nM |  |  |  |  | Emax (MRGPRX4-83S [1]; Table 2): 87%; Emax (MRGPRX4-83S [2]; Table 2): 82%; EC50 (MRGPRX4-83S [2]; Table 2): 30.6 ± 3.1 nM; Emax (human MRGPRX4-83L [3]; Table 1): 100%; Emax (human MRGPRX4-83L [4]; Table 1): 113% |
| C#CCn1c(=O)c2c(nc(CCc3ccccc3Br)n2C(C)CC)n(CCCCP(=O)(O)O)c1=O (stereo not drawn) [B-49, (4-(8-(2-bromophenethyl)-7-(sec-butyl)-2,6-dioxo-1-(prop-2-yn-1-yl)-1,2,6,7-tetrahydro-3H-purin-3-yl)butyl)phosphonic acid] |  | 105 to 107 °C |  |  | 103% | 0.0751 ± 0.0229 nM | 119% | 0.491 ± 0.192 nM |  |
| C#CCn1c(=O)c2c(nc(CCc3ccc(C(C)C)cc3)n2CC2CCCC2)n(CCCCP(=O)(O)O)c1=O [B-43, (4-(7-(cyclopentylmethyl)-8-(4-isopropylphenethyl)-2,6-dioxo-1-(prop-2-yn-1-yl)-1,2,6,7-tetra-hydro-3H-purin-3-yl)butyl)phosphonic acid] |  | 125 to 127 °C |  |  | 53% | 10.7 ± 7.1 nM |  | > 10000 nM |  |
| C#CCn1c(=O)c2c(nc(CCc3ccc(OC)cc3)n2CC2CCCC2)n(CCCCP(=O)(O)O)c1=O [B-41, (4-(7-(cyclopentylmethyl)-8-(4-methoxyphenethyl)-2,6-dioxo-1-(prop-2-yn-1-yl)-1,2,6,7-tetra-hydro-3H-purin-3-yl)butyl)phosphonic acid] |  | 111 to 113 °C |  |  | 96% | 3.67 ± 1.21 nM | 57% | 51.4 ± 8.5 nM |  |
| C#CCn1c(=O)c2c(nc(CCc3ccccc3I)n2CC)n(CCCCP(=O)(O)O)c1=O [B-31, (4-(7-Ethyl-8-(2-iodophenethyl)-2,6-dioxo-1-(prop-2-yn-1-yl)-1,2,6,7-tetrahydro-3H-purin-3-yl)butyl)phosphonic acid] |  | 202 to 204 °C |  |  | 89% | 0.0937 ± 0.0523 nM |  |  | Emax (human MRGPRX4-83L [3]; Table 4): 94%; EC50 (human MRGPRX4-83L [3]; Table 4): 87.4 ± 24.2 nM; EC50 (human MRGPRX4-83L [4]; Table 4): 0.389 ± 0.092 nM; Emax (human MRGPRX4-83L [4]; Table 4): 103% |
| C#CCn1c(=O)c2c(nc(CCc3ccc(-c4ccccc4)cc3)n2CC2CCCC2)n(CCCCP(=O)(O)O)c1=O [B-44, (4-(8-(2-([1,1′-biphenyl]-4-yl)ethyl)-7-(cyclopentylmethyl)-2,6-dioxo-1-(prop-2-yn-1-yl)-1,2,6,7-tetrahydro-3H-purin-3-yl)butyl)phosphonic acid] |  | 156 to 158 °C |  |  | 43% | 2.12 ± 0.85 nM |  | > 10000 nM | IC50 (MRGPRX4-83S [2]): 0.0873 ± 0.012 nM |
| C#CCn1c(=O)c2[nH]c(CCc3cccc(Br)c3)nc2n(CCCCP(=O)(OCC)OCC)c1=O [C-3, Diethyl (4-(8-(3-bromophenethyl)-2,6-dioxo-1-(prop-2-yn-1-yl)-1,2,6,7-tetrahydro-3H-purin-3-yl)butyl)phosphonate] | > 10000 nM | 133 to 135 °C | > 10000 nM | > 10000 nM |  |  |  |  | IC50 (human MRGPRX4-83L [3]; Table 1): > 10000 nM; IC50 (human MRGPRX4-83L [4]): > 10000 nM |
| C#CCn1c(=O)c2c(nc(CCc3ccccc3C)n2C(C)C)n(CCCCP(=O)(O)O)c1=O [B-48, (4-(7-Isopropyl-8-(2-methylphenethyl)-2,6-dioxo-1-(prop-2-yn-1-yl)-1,2,6,7-tetrahydro-3H-purin-3-yl)butyl)phosphonic acid] |  | 88 to 90 °C |  |  | 102% | 0.0705 ± 0.0198 nM | 154% | 0.984 ± 0.054 nM |  |

Further lines, with some results ahead:

| EC50 (MRGPRX4-83S [1]; Table 2) | melting point | EC50 (human MRGPRX4-83L [3]; [5]) | EC50 (human MRGPRX4-83L [4]; Table 1) | Emax (MRGPRX4-83S [1]; Table 3) | EC50 (MRGPRX4-83S [1]; Table 3) | Emax (MRGPRX4-83S [2]; Table 3) | EC50 (MRGPRX4-83S [2]; Table 3) | SMILES | further results |
| --- | --- | --- | --- | --- | --- | --- | --- | --- | --- |
| 735 ± 131 nM | 256 to 260 °C | > 10000 nM | 9450 ± 3230 nM |  |  |  |  | CCn1c(=O)c2[nH]c(CCc3ccc(F)cc3)nc2n(CCCCP(=O)(O)O)c1=O [B-14, (4-(1-Ethyl-8-(4-fluorophenethyl)-2,6-dioxo-1,2,6,7-tetrahydro-3H-purin-3-yl)butyl)phosphonic acid] | Emax (MRGPRX4-83S [1]; Table 2): 81%; Emax (MRGPRX4-83S [2]; Table 2): 74%; EC50 (MRGPRX4-83S [2]; Table 2): 500 ± 113 nM; value in brackets beside IC50 >10 (human MRGPRX4-83L [3]; Table 1, bracketed value ± spread in IC50 column, not defined, inhibition of 2.6 μM B-16): 3 ± 15; IC50 (human MRGPRX4-83L [3]; Table 1): > 10000 nM; Emax (human MRGPRX4-83L [4]; Table 1): 99% |
|  | 129 to 131 °C |  |  | 79% | 13.4 ± 0.8 nM | 6% | 5.81 ± 0.58 nM | C#CCn1c(=O)c2c(nc(CCc3ccc(Br)cc3)n2CC2CCCC2)n(CCCCP(=O)(O)O)c1=O [B-38, (4-(8-(4-Bromophenethyl)-7-(cyclopentylmethyl)-2,6-dioxo-1-(prop-2-yn-1-yl)-1,2,6,7-tetrahydro-3H-purin-3-yl)butyl)phosphonic acid] | IC50 (MRGPRX4-83S [2]): 5.23 ± 2.2 nM; Emax (human MRGPRX4-83L [3]; Table 4): 92%; EC50 (human MRGPRX4-83L [3]; Table 4): 1.44 ± 0.32 nM; IC50 (human MRGPRX4-83L [4]): 949 ± 308 nM; EC50 (human MRGPRX4-83L [4]; Table 4): 267 ± 153 nM; Emax (human MRGPRX4-83L [4]; Table 4): 9% |
|  | 101 to 102 °C |  |  | 77% | 18.3 ± 6.1 nM | 8% | 23.7 ± 0.7 nM | C#CCn1c(=O)c2c(nc(CCc3ccc(C(F)(F)F)cc3)n2CC2CCCC2)n(CCCCP(=O)(O)O)c1=O [B-40, (4-(7-(cyclopentylmethyl)-2,6-dioxo-1-(prop-2-yn-1-yl)-8-(4-(trifluoromethyl)phenethyl)-1,2,6,7-tetrahydro-3H-purin-3-yl)butyl)phosphonic acid] | IC50 (MRGPRX4-83S [2]): 13 ± 1.4 nM |
|  | 192 to 194 °C |  |  |  | > 100000 nM |  | > 10000 nM | C#CCn1c(=O)c2[nH]c(CCc3ccccc3Br)nc2n(CCCCCC(=O)O)c1=O [G-3, 6-(8-(2-Bromophenethyl)-2,6-dioxo-1-(prop-2-yn-1-yl)-1,2,6,7-tetrahydro-3H-purin-3-yl) hexanoic acid] |  |
| > 10000 nM | 210 to 212 °C | > 10000 nM | > 10000 nM |  |  |  |  | O=C(O)CCCCn1c(=O)n(CC2CCC2)c(=O)c2[nH]c(CCc3cccc(C(F)(F)F)c3)nc21 [G-2, 5-(1-(Cyclobutylmethyl)-2,6-dioxo-8-(3-(trifluoromethyl)phenethyl)-1,2,6,7-tetrahydro-3H-purin-3-yl)pentanoic acid] | IC50 (human MRGPRX4-83L [3]; Table 1): > 10000 nM; IC50 (human MRGPRX4-83L [4]): > 10000 nM |
|  | 119 to 121 °C |  |  | 76% | 0.773 ± 0.106 nM | 23% | 143 ± 66 nM | C#CCn1c(=O)c2c(nc(CCc3ccc(I)cc3)n2CC2CCCC2)n(CCCCP(=O)(O)O)c1=O [B-39, (4-(7-(cyclopentylmethyl)-8-(4-iodophenethyl)-2,6-dioxo-1-(prop-2-yn-1-yl)-1,2,6,7-tetrahydro-3H-purin-3-yl)butyl)phosphonic acid] | IC50 (MRGPRX4-83S [2]): 16.1 ± 8.4 nM |
| > 10000 nM | 179 to 181 °C | > 10000 nM | > 10000 nM |  |  |  |  | CCn1c(=O)c2[nH]c(CCc3cccc(OC)c3)nc2n(CCCCS(=O)(=O)O)c1=O [E-2, 4-(1-Ethyl-8-(3-methoxyphenethyl)-2,6-dioxo-1,2,6,7-tetrahydro-3H-purin-3-yl)butane-1-sulfonic acid] | IC50 (human MRGPRX4-83L [3]; Table 1): > 10000 nM; IC50 (human MRGPRX4-83L [4]): > 10000 nM |
